PMC11357638 (Molecules, 2024)
Several values for one entry are separate records, joined by “and”; a condition that tells them apart may be missing. Equal values may be shown once.

Biological target: T1, human TRPV3 (hTRPV3) channel (Homo sapiens, UniProt Q8NET8)
T1 construct: expressed in transfected cells; host or cells: HEK293T
T1 sequence (Q8NET8 1-790): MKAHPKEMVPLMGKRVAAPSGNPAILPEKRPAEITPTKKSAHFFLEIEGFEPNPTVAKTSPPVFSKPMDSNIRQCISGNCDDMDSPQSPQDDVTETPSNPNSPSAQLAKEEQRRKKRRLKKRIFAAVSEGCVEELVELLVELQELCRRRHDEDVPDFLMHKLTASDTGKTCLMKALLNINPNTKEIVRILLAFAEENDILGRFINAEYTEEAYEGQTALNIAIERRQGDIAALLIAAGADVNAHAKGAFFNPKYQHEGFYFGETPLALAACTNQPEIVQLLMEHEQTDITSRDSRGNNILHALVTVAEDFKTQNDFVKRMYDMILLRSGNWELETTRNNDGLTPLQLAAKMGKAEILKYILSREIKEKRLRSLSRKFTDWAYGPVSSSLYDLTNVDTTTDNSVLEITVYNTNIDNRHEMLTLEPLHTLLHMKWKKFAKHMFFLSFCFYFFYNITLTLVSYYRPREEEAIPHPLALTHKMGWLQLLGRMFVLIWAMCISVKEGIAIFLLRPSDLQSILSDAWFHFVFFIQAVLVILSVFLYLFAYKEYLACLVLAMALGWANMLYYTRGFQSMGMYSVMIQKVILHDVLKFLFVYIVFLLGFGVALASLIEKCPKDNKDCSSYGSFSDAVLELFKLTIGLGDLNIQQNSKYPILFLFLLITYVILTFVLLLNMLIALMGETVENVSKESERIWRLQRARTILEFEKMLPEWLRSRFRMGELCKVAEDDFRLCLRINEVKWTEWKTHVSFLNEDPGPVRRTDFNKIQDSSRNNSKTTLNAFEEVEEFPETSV
Experiment: Whole-cell patch-clamp of hTRPV3 currents in transfected HEK293T cells
Format: cell-based
Details: WT hTRPV3 in HEK293T, whole-cell, activated by 50 μM 2-APB, at +80 mV, Hill fit, mean ± SD; read-out: IC50, inhibition of hTRPV3 currents

For `O=C(O)/C=C/c1ccc(O)c(O)c1` [CA, caffeic acid], the IC50 was 102 µM and ~100 µM.
